The record followed here is patent US7179812B2, “Diazine derivatives” (Hoffmann-la Roche Inc., priority 2005, dated 2007).

The structures appear in SMILES notation.

The term inhibition denotes how much of the control response was suppressed.

T1 sequence (P04626 23-1255): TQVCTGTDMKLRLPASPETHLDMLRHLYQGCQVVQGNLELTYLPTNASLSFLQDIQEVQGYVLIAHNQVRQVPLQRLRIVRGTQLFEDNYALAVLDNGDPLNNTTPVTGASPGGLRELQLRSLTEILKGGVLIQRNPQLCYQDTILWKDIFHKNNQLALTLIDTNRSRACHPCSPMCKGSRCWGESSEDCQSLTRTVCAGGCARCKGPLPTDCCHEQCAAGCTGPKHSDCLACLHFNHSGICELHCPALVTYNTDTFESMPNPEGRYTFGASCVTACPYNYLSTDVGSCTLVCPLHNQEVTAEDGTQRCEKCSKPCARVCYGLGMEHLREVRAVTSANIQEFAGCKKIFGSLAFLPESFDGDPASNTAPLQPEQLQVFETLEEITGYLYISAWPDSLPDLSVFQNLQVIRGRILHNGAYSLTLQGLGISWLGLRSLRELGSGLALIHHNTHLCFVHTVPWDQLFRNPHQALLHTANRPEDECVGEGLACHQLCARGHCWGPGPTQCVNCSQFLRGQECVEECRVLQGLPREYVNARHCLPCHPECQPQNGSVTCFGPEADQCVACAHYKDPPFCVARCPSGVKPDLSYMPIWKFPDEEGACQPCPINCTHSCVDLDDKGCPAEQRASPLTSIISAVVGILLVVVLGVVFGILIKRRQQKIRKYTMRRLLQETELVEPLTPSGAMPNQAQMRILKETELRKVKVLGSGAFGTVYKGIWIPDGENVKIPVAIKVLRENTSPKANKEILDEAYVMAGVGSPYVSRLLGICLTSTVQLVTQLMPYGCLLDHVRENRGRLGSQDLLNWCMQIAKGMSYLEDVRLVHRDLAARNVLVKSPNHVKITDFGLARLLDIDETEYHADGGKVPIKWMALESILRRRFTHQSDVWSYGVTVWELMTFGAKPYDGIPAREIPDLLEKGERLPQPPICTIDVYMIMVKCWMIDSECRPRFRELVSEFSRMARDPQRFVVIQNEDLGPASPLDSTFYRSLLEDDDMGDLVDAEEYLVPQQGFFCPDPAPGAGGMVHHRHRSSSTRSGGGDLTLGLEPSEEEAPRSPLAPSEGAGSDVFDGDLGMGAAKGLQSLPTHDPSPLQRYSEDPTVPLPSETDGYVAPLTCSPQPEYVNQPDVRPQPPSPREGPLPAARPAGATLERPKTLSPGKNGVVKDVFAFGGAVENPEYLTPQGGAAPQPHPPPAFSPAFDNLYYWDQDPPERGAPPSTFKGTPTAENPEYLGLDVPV

The assay addresses T1, HER2 (Homo sapiens, UniProt P04626).
T1 construct: endogenous in cells; host or cells: Calu3 tumor cell line
Kind of assay: Inhibition of HER2 phosphorylation in Calu3 tumor cell line. In kind it is cell-based. The settings on record: Calu-3; compound concentration 1 μM; Calu3 cells, 16 h incubation; pY 1248 in HER2; percentage of the DMSO treated control; read-out: Percent inhibition of HER2-phosphorylation. The method, then: Inhibition of HER2 Phosphorylation in Calu3 Tumor Cell Line
2×10^5 Calu3 cells per well were plated in a 12-well plate. After 4 days cells were starved for 16 h in DMEM(Dulbecco's Modified Eagle Medium)/0.5% FCS(Fetal Calf Serum)/1% Glutamine. During this time cells were incubated with 1 μM of the compound. Afterwards cells were lysed in lyses buffer containing 1% Triton, 10% Glycerol, 1 mM EGTA, 1.5 mM MgCl2, 150 mM NaCl, 50 mM Hepes pH 7.5, 1 mM PMSF, 10 μg/mL Aprotinin and […] Orthovanadate. Cell lysates were analyzed on a SDS PAGE and after transfer to a nitrocellulose membrane detected with an antibody specifically recognizing the pY 1248 in HER2. Inhibition of HER2 phosphorylation is calculated as percentage of the DMSO treated control. This percentage is calculated according to the following formula: Inhibition in %=100−(Phosphorylated-HER2-Signal of Test Sample*100/Phosphorylated-HER2-Signal DMSO-control).
Consider `FC(F)(F)c1ccc(C=Cc2nc(COc3cnc(CCCCn4ccnn4)cn3)co2)cc1` [example 7, 2-(4-[1,2,3]Triazol-1-yl-butyl)-5-{2-[2-(4-trifluoromethyl-phenyl)-vinyl]-oxazol-4-ylmethoxy}-pyrazine], for which the inhibition at 1 µM amounted to 75.3%. The same measure for `FC(F)(F)c1ccc(C=Cc2nc(COc3ccc(CCCCn4ccnn4)nn3)co2)cc1` [example 2, 3-(4-[1,2,3]Triazol-1-yl-butyl)-6-{2-[2-(4-trifluoromethyl-phenyl)-vinyl]-oxazol-4-ylmethoxy}-pyridazine]: 79.8%. On to `FC(F)(F)c1ccc(C=Cc2nc(COc3ncc(CCCCn4ccnn4)cn3)co2)cc1` [example 4, 5-(4-[1,2,3]Triazol-1-yl-butyl)-2-{2-[2-(4-trifluoromethyl-phenyl)-vinyl]-oxazol-4-ylmethoxy}-pyrimidine], for which the inhibition at 1 µM amounted to 72.7%.
